Key:
Type in all cases: functional, cell-based
P388 = assay: Cytotoxicity against mouse P388 cells
HT-29 = assay: Cytotoxicity against human HT-29 cells
A549 = assay: Cytotoxicity against human A549 cells

Measured: IC50

CC(=O)O[C@H]1CC[C@]2(C)[C@H]3C[C@@H](O)[C@]4(C)C5=C(CC[C@H]4[C@]3(C)CC[C@H]2C1(C)C)COC5=O
≥ 1 µg/mL: all assays above

CC1(C)CCC[C@]2(C)[C@H]3C[C@@H](O)[C@]4(C)c5cocc5C(=O)C[C@H]4[C@]3(C)CC[C@@H]12 [SALMAHYRTISOL B]
≥ 1 µg/mL: all assays above

CC(=O)O[C@@H]1c2occc2[C@@H](O)C[C@H]2[C@]3(C)CC[C@H]4C(C)(C)CCC[C@]4(C)[C@H]3C[C@@]21C [SALMAHYRTISOL A]
≥ 1 µg/mL: all assays above

CC(=O)OC[C@]1(C)CCC[C@]2(C)[C@H]3C[C@@H](O)[C@]4(C)C5=C(CC[C@H]4[C@]3(C)CC[C@@H]12)COC5=O
≥ 1 µg/mL: all assays above
